The text below walks through data of patent publication US20100130452A1, “Use of Doxycycline in the Treatment of Idiopathic Pulmonary Fibrosis” (NATIONAL RESEARCH DEVELOPMENT CORPORATION, priority 2007, published 2010).

For series [1], the system named is Idiopathic Pulmonary Fibrosis patients. Description: Response to treatment with only doxycycline (case reports). It counts as in vivo, human. An excerpt:
Example 1 Response to Treatment with Only Doxycycline […]

In a further series the test system is suspected IPF patients. Particulars: human, in vivo.
Series [2] deals with patients (periodontal disease, malaria prevention, Pulmonary Capillary Hemangiomatosis, Q fever endocarditis). Particulars: in vivo; cited from earlier work.
A further series concerns IPF patients. The settings on record: cited from earlier work.
Where [3] appears, read: Case 2, 01 Oct. 2007 (earlier date, baseline).
Setting [4] is: Case 2, 09 Jan. 2008, on doxycycline 100 mg twice a day for over 3 months.
The mark [5] stands for this setting: Case 4, 10 Jan. 2004 (earlier date, baseline).
Where [6] appears, read: Case 4, 20 Aug. 2004, after doxycycline for over 7 months.

Take `C[C@H]1c2cccc(O)c2C(=O)C2=C(O)[C@]3(O)C(=O)C(C(N)=O)=C(O)[C@@H](N(C)C)[C@@H]3[C@@H](O)[C@@H]21` [doxycycline]: in series [1] (setting [3]), the “6 minute Walking distance” value worked out at 980 ft and the FVC is 1.66 L. For the same molecule, in series [1] (setting [4]), the “6 minute Walking distance” value turned out to be 1155 ft and the FVC is reported as 1.92 L. In series [1] (setting [5]), the FEV1 is recorded as 1.15, the FVC came to 2.12, the “TLCO(%)” value came to 49.4% and the TLCO/VA came to 102.6. Moreover, the VA in series [1] (setting [5]) is given as 3.76. In series [1] (Case 4, 20 Aug. 2004, after doxycycline 100 mg twice a day for over 7 months), this molecule registered an FVC of 2.45. Also, in series [1] (setting [6]), the FEV1 is 1.51, the “TLCO(%)” value was determined as 58.9%, the TLCO/VA stood at 127.9 and the VA turned out to be 3.59. In the series on suspected IPF patients, the “Intolerance or adverse reaction” value is given as “no intolerance or adverse reaction” and the Tolerability result is listed as “well tolerated”. Besides, in series [2], the “Harm in long-term use (ACMP conclusion)” value is given as “no evidence of harm” and the “Tolerability in Pulmonary Capillary Hemangiomatosis with atypical endotheliomatosis” value was “without any problem”.
In the case of `CC(C)(S)[C@@H](N)C(=O)O` [D-penicillamine], the “Benefit of antifibrotic therapy in IPF” value in the series with IPF patients (in vivo) was “did not show any significant benefit”.
On to “doxycycline hyclate [doxycycline hyclate (Periostat)]”, for which the “Safety in clinical studies” value in series [2] is given as “safe”.
`Cc1ccc(=O)n(-c2ccccc2)c1` [Pirfinidone]: the Tolerability entry with IPF patients (in vivo) is listed as “well tolerated”.
Take `COc1cc2c(c(OC)c1OC)-c1ccc(OC)c(=O)cc1[C@@H](NC(C)=O)CC2` [colchicines]: the “Benefit of antifibrotic therapy in IPF” value in the series on IPF patients (in vivo) is on record as “did not show any significant benefit”.

B1: Interferon gamma-1b: a down regulator to TGFβ (protein, UniProt P01579 24-161, looked up)
Interferon gamma: QDPYVKEAENLKKYFNAGHSDVADNGTLFLGILKNWKEESDRKIMQSQIVSFYFKLFKNFKDDQSIQKSVETIKEDMNVKFFNSNKKKRDDFEKLTNYSVTDLNVQRKAIHELIQVMAELSPAAKTGKRKRSQMLFRG
For the molecule B1, in the series on IPF patients (one year study), the “Lung volume, gas exchange and symptoms” value is “increase”. In the series on IPF patients (recent double blind controlled trial), the “Efficacy in IPF” value is “ruled out its efficacy”.
